{"source": "patent US20230157949A1", "about": "“ORAL FILM OF HIV DRUGS” (LAURUS LABS LIMITED, priority 2020, published 2023)", "origin": "cited, not measured here", "conditions": "in combination with low doses of ritonavir"}
{"smiles": "Cc1cccc(C)c1OCC(=O)N[C@@H](Cc1ccccc1)[C@@H](O)C[C@H](Cc1ccccc1)NC(=O)[C@H](C(C)C)N1CCCNC1=O", "note": "[lopinavir, Lopinavir]", "values": [{"measurement": "increase of AUC", "value": "greater than 100 fold"}]}
